Key:
[1] = test system: BDCA3 DC; assay: Test of promoting interferon λ3 production by BDCA3 DC co-cultured with lactic acid bacteria suspension; type: cell-based, human; details: 10 μM chloroquine, 24 hours
Method: First, an MRS medium containing 10% (w/v) salt was inoculated with strain KK221 so that a concentration became 1×10^7 cells/ml, and therefore a stock solution of lactic acid bacteria was prepared. The stock solution of lactic acid bacteria was statically cultured at 30° C. for 48 to 72 hours, and then subjected to a boiling and pasteurization treatment at 95° C. for 10 minutes, and therefore a pasteurization-treated culture solution was prepared. […]
Activity of promoting interferon λ production by the prepared lactic acid bacteria suspension was evaluated as follows by using dendritic cells collected and prepared from the peripheral blood of a non-virus infected healthy subject. […]
The number of cells of each isolated DC was measured, and a cell stock solution was prepared using an IMDM medium (GIBCO) containing 25 mM D-glucose, 25 mM HEPES, and […] so that a concentration became 5×10^4 cells/ml. […]
Using the recovered culture supernatant, interferon λ3 was measured by a chemiluminescent enzyme immunoassay method according to a method described in a document of Sugiyama, et al. [Sugiyama M, et al. Hepatol Res. 42 (11): 1089-1099, 2012]. […]

[2] = test system: BDCA3 DC; assay: Test of promoting cytokine production by BDCA3 DC (cytometric beads array); type: cell-based, human; details: lactic acid bacteria count/DC count=100
Method: Poly IC or the lactic acid bacteria suspension prepared by using strain KK221 according to Example 1, and BDCA3 DC were prepared and co-cultured so that lactic acid bacteria count/DC count=100, and the measurement of the activity of promoting production of various cytokines was carried out.
Note that each of TNFα, IL-10, IL-1β, IL-6, and IL-12p70 was measured by using cytometric beadsarray (CBA; Becton, Dickinson and Company).

For Poly IC, the “activity of promoting interferon λ production according to addition of chloroquine” value [1] was “deteriorated” and the “production of various cytokines (TNFα, IL-10, IL-1β, IL-6, IL-12p70, interferon α, interferon λ) by BDCA3 DC” value [2] was “nonspecifically promoted production of TNFα, interferon α, IL-6, and the like in addition to interferon λ (IL28B)”.

— US20190099456A1, “COMPOSITION FOR PROMOTING INTERFERON LAMBDA PRODUCTION AND PRODUCTION METHOD THEREFOR” (KIKKOMAN CORPORATION, priority 2016, published 2019)
